Test results taken from patent US20240390484A1 (priority 2022, published 2024).

How the values were obtained:
[1] = test system: Vero E6 cells; format: cell-based; details: ready-to-use S2P RNA, 4 μg, 48 hours post transfection; 48/40.5/10/1.5 mol %
[2] = Particle size and polydispersity index (PDI) by Dynamic Light Scattering; format: physicochemical; details: for “Ready-to-use” S2P RNA formulation PDI / “Ready-to-use” S2P RNA formulation Size: 48/40.5/10/1.5 mol %, blank-LNP added to lyophilized S2P RNA (55 ug/vial), N/P 7; for Blank-LNP PDI / Blank-LNP Size: 48/40.5/10/1.5 mol % ionizable lipid/cholesterol/DSPC/DMG-PEG
Protocol: (§1) Lipid nanoparticles (LNPs) were formed or formulated by rapid mixing of an ethanol phase and an aqueous phase using a microfluidic device. The aqueous phase included a 50 mM citrate buffer (pH 5.5). The ethanol phase included an ionizable lipid (as described herein), cholesterol (Jiangsu Southeast Nanomaterials), 1,2-diastearoyl-sn-glycero-3-phosphocholine (DSPC) (Jiangsu Southeast Nanomaterials) and 1,2-dimyristoyl-rac-glycero-3-methoxypolyethylene glycol-2000 (DMG-PEG2000) (SINOPEG). A series of ionizable lipids were evaluated. These four lipid components were mixed at defined molar ratios in ethanol, for instance, at a molar ratio of 48:40.5:10:1.5 (ionizable lipid:cholesterol:DSPC:DMG-PEG2000). The generated LNP particles were purified in citrate buffer (containing sucrose) and characterized with respect to particle size, polydispersity index (PDI) and ionizable lipid concentration. The LNP solution was then diluted to the target concentration and stored at 2-8° C.
(§2) In the case of a filled LNP, for example, an LNP-encapsulated S-2P RNA liquid drug product, the preparation protocol is essentially the same, except that it was an aqueous solution of S-2P RNA in citrate buffer pH 5-6 that constitutes the aqueous phase for LNP formation. The LNP-encapsulated RNA formulation is also referred to as “RNA-LNP” in this disclosure. Regarding characterization, particle size and polydispersity index (PDI) of the RNA-LNP were determined by Dynamic Light Scattering (DLS); RNA encapsulation efficiency and concentration were determined by means of Ribogreen® assay and RNA purity was determined by agarose gel electrophoresis.
(§3) The “ready-to-use” RNA product was manufactured by transferring a predetermined amount of already formed LNP in solution to a sealed vial containing the lyophilized RNA composition, followed by mixing at room temperature. The amount of LNP added per vial (e.g., 30-100 μg RNA per vial) was determined based on the molar ionizable lipid:RNA (N/P) molar ratio of 7. In this disclosure, “ready-to-use” S-2P RNA formulations (also referred to as “LNP(S-2P RNA)”) containing 30-100 μg/mL S-2P RNA were prepared, and then characterized with respect to particle size, polydispersity index, as well as RNA concentration, complexation efficiency, and purity using the same methods as described above in Example 3.

[3] = Stability of blank-LNP at 2-8° C. (particle size, PDI); format: physicochemical; details: blank-LNP 48/40.5/10/1.5 mol %
Protocol: as §1
Each generated blank-LNP formulation was added to and mixed with lyophilized S2P RNA, altogether yielding a series of “ready-to-use” S2P RNA test items containing the different ionizable lipids. The pharmaceutical characteristics (Table 3) and in vitro transfection efficiency (Table 4) of these “ready-to-use” RNA test items were compared head-to-head. In parallel, the stability profiles of these […] blank-LNP formulations (i.e. without RNA complexation) were assessed at 2-8° C. (see Table 5).
The generated fourteen blank-LNP formulations were characterized in terms of particle size and PDI, both at the end of manufacturing (T=0) and 8-week storage at 2-8° C. […] (defined as size increase ≤20 nm in 8 weeks), namely DMG-PEG2000 between at least 1-4 mol %, DSPC between at least 5-20 mol %, ionizable lipid between at least 30-70 mol % and cholesterol between at least 18.5-58.5 mol %.

[4] = RNA encapsulation/complexation efficiency by Ribogreen assay; format: physicochemical; details: 48/40.5/10/1.5 mol %; blank-LNP added to lyophilized S2P RNA (55 ug/vial), N/P 7
Protocol: as §2, §3

[5] = test system: BHK-21 cells; format: cell-based; details: ready-to-use S2P RNA, 4 μg, 48 hours post transfection; 48/40.5/10/1.5 mol %

Structure (SMILES)	RBD expression in Vero E6 cells [1]	“Ready-to-use” S2P RNA formulation PDI [2]	“Ready-to-use” S2P RNA formulation Size [2] [nm]	Blank-LNP PDI [2]	Blank-LNP Size [2] [nm]	Change in size (nm) vs. T0, T = 1 month [3]	PDI, T = 1 month [3]	Size, T = 1 month [3] [nm]	Change in size (nm) vs. T0, T = 2 weeks [3]	PDI, T = 2 weeks [3]	Size, T = 2 weeks [3] [nm]	PDI, T = 0 [3]	Size, T = 0 [3] [nm]	“Ready-to-use” S2P RNA formulation RNA complexation efficiency [4] [%]	RBD expression in BHK-21 cells [5] [ng/mL]
CCCCCCOCCC/C=C/COC(=O)CCCCCCCCC(CCCCCCCCC(=O)OC/C=C/CCCOCCCCCC)OC(=O)CCCN(C)C [Lipid #11]	0.20 ng/mL	0.11	266	0.09	165	+59 nm	0.06	224	+42 nm	0.04	207	0.09	165	34	0.52
CCCCCCCCOC/C=C\COC(=O)CCCCCCCCC(CCCCCCCCC(=O)OC(CCCCCCCC)CCCCCCCC)OC(=O)CCCN(C)C (stereo not drawn) [Lipid #12]	<LOD	0.14	172	0.04	85	+12 nm	0.11	97	+8 nm	0.06	93	0.04	85	27	0.19
